Measurements published in ChEMBL document CHEMBL5608201, “Discovery and optimization of thiazole-based quorum sensing inhibitors as potent blockers of Pseudomonas aeruginosa pathogenicity” (Eur J Med Chem, 2024).
pIC50: −log10 of the molar value. Converted amounts (≈) assume the structure as drawn.

Legend:
[1] = target: T1, Transcriptional regulator MvfR (Pseudomonas aeruginosa PA14, UniProt A0A072ZLE6); test: Inverse agonist activity at Pseudomonas aeruginosa PqsR extracted from Escherichia coli Dh5alpha co-expressing lacZ incubated with test compound in presence of pseudomonas quinolone signal (PQS) by ONPG/heterologous reporter gene assay
T1 sequence (A0A072ZLE6 whole entry): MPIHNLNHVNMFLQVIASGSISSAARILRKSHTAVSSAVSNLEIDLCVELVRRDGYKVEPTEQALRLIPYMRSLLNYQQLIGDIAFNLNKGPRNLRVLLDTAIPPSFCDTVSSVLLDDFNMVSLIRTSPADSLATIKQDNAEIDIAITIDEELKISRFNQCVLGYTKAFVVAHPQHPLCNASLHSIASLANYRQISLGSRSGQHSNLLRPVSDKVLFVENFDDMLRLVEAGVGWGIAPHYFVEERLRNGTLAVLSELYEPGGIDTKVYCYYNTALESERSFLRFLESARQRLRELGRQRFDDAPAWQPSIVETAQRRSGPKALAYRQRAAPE

[2] = system: Pseudomonas aeruginosa; test: Antivirulence activity against Pseudomonas aeruginosa PA14 assessed as inhibition of pyocyanin biosynthesis incubated for 16 hrs under agitation by photometric analysis; assay type: functional, organism-based; settings: PA14, 16 h
[3] = Metabolic stability in mouse liver microsomes assessed as half life at 1 uM measured after 30 mins by HPLC-MS/MS analysis; assay type: ADME, Microsome
[4] = Kinetic aqueous solubility of the compound in PBS buffer incubated for 5 mins by turbidimetric aqueous solubility assay; assay type: physicochemical; settings: read-out: Kinetic_solubility
[5] = Lipophilicity, log D of the compound; assay type: physicochemical; settings: octanol/water
[6] = Cytotoxicity against human HepG2 cells assessed as viable cells; assay type: toxicity, cell-based; settings: read-out: LD50 (the source's name)
[7] = Metabolic stability in human liver S9 fraction assessed as half life; assay type: ADME, subcellular
[8] = Cytotoxicity against human HepG2 cells assessed as viable cells at 25 uM relative to control; assay type: toxicity, cell-based; settings: read-out: Activity
[9] = Cytotoxicity against human HEK293 cells assessed as viable cells; assay type: toxicity, cell-based; settings: read-out: LD50 (the source's name)
[10] = Cytotoxicity against human HEK293 cells assessed as viable cells at 25 uM relative to control; assay type: toxicity, cell-based; settings: read-out: Activity
[11] = target: Voltage-gated inwardly rectifying potassium channel KCNH2 (Homo sapiens, UniProt Q12809); test: Inhibition of hERG; assay type: toxicity
[12] = Plasma protein binding in human; assay type: ADME, cell-free; settings: read-out: PPB
[13] = Plasma protein binding in mouse; assay type: ADME, cell-free; settings: read-out: PPB
[14] = target: Cytochrome P450 2D6 (Homo sapiens, UniProt P10635); test: Inhibition of CYP2D6 (unknown origin); assay type: ADME
[15] = target: T2, CYP1A (Homo sapiens, UniProt P04798+P05177); test: Inhibition of CYP1A (unknown origin); assay type: ADME, protein assay
T2 sequence (P04798 whole entry): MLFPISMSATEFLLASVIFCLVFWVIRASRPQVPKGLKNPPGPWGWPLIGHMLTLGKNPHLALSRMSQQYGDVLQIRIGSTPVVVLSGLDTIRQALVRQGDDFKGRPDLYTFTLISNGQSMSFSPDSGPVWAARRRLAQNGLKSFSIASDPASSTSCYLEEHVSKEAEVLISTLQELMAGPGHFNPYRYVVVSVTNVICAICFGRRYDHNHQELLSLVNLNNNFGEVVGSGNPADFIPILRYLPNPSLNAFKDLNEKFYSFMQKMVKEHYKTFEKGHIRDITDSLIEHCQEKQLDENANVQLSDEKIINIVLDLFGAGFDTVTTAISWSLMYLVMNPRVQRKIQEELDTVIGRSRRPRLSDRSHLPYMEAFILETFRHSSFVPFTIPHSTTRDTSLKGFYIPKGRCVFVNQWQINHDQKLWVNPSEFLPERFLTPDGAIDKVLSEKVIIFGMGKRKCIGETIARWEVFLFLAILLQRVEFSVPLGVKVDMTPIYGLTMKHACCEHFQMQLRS
T2 sequence (P05177 whole entry): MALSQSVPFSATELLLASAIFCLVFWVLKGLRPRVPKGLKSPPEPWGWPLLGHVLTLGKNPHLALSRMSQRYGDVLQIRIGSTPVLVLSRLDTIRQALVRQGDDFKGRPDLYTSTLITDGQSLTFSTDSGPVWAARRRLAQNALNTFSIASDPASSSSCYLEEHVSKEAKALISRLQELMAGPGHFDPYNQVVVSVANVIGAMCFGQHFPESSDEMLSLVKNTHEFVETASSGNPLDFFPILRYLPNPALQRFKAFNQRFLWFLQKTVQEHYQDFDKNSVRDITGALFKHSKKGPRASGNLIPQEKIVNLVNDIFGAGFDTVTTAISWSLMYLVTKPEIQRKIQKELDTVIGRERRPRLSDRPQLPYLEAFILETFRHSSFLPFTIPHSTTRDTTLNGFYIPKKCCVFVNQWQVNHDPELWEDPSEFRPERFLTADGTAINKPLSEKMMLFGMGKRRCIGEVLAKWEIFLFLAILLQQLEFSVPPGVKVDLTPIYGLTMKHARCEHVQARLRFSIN

[16] = target: Cytochrome P450 2C9 (Homo sapiens, UniProt P11712); test: Inhibition of CYP2C9 (unknown origin); assay type: ADME
Chain of Cytochrome P450 2C9 (P11712 whole entry): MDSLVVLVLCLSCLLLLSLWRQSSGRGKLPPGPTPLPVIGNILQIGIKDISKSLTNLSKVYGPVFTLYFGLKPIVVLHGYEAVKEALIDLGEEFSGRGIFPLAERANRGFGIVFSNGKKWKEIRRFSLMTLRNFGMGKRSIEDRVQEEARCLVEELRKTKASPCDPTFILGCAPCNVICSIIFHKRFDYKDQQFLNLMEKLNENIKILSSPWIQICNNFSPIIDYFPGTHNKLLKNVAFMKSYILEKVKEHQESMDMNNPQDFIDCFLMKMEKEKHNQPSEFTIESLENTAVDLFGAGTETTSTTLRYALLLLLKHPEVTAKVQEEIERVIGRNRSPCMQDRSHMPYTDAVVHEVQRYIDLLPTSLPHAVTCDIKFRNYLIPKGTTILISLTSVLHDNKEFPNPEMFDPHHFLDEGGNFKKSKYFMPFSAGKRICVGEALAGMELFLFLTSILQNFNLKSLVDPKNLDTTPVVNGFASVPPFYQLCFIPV

Chain of Voltage-gated inwardly rectifying potassium channel KCNH2 (Q12809 whole entry): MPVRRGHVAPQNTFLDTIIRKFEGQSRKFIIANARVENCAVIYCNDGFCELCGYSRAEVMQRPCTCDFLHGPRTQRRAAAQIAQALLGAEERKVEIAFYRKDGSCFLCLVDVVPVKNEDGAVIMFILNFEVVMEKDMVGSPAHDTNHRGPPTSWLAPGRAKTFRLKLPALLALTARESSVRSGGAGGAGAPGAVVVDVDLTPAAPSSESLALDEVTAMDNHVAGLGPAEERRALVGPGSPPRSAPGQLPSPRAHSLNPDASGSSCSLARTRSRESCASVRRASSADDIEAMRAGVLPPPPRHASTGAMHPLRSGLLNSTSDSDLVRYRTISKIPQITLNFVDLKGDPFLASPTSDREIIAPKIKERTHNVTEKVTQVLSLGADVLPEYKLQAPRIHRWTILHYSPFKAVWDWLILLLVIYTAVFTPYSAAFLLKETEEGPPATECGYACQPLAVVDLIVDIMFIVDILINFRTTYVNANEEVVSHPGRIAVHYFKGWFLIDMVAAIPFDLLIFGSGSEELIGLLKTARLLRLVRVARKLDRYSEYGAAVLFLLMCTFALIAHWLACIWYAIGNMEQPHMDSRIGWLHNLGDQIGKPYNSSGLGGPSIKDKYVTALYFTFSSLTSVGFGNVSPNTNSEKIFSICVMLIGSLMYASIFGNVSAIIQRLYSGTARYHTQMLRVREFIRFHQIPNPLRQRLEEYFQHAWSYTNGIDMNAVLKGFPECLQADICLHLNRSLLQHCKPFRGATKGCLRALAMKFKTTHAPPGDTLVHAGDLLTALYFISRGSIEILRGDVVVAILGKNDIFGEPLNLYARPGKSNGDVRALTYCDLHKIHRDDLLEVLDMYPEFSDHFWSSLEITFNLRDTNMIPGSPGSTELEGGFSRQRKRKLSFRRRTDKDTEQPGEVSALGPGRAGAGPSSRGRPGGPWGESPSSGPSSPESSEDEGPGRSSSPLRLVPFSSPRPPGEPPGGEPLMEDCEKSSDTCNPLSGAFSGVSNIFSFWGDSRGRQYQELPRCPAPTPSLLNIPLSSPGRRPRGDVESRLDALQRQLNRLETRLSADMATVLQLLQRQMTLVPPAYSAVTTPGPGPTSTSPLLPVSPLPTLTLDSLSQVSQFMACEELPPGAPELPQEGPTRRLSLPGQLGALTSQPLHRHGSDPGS
Chain of Cytochrome P450 2D6 (P10635 whole entry): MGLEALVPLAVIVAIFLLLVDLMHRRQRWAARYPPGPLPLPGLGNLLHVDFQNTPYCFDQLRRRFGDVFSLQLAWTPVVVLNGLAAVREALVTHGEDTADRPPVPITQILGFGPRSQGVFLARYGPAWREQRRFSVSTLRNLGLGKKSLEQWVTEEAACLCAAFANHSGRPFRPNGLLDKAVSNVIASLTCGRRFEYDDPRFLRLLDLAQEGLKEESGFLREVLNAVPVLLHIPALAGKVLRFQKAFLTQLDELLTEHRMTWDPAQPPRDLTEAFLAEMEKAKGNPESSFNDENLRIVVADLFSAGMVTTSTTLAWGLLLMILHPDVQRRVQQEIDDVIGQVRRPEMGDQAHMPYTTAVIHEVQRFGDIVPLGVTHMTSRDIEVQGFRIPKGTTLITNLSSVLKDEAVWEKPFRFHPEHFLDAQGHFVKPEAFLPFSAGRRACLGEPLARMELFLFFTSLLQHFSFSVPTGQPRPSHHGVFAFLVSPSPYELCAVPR

SMILES	pIC50 [1]	pIC50 [2]	half-life at 1 µM [3] [min]	solubility kinetic at 5 min [4] [µM]	logD [5]	other results
CN(C)c1ccc(-c2ncc(CNc3ccnc(C(F)(F)F)c3)s2)cc1	6.14	< 5.30	45	13 (≈ 4.92 µg/mL)	–	–
N#Cc1cc(NCc2cnc(-c3ccc(Oc4ccccc4)cc3)s2)ccn1	7.52	6.54	39	7 (≈ 2.69 µg/mL)	3.15	–
FC(F)(F)c1cc(NCc2csc(-c3ccc(Oc4ccccc4)cc3)n2)ccn1	7.28	5.86	18	18 (≈ 7.69 µg/mL)	5.04	–
FC(F)(F)c1cc(NCc2cc(-c3ccc(Oc4ccccc4)cc3)no2)ccn1	7.52	6.47	36	8 (≈ 3.29 µg/mL)	5.04	–
COc1ccc(-c2ncc(CNc3ccnc(C(F)(F)F)c3)s2)cc1	7.08	6.35	–	–	–	–
FC(F)(F)c1cc(NCc2cn(-c3ccc(Oc4ccccc4)cc3)nn2)ccn1	–	6.70	10	8 (≈ 3.29 µg/mL)	4.22	CC50 [6]: ~25000 nM; half-life [7]: > 60 min; viability at 25 µM [8]: 55%; CC50 [9]: ~25000 nM; viability at 25 µM [10]: 48%; pIC50 [11]: < 4.60; fraction unbound [12]: < 0.01; fraction unbound [13]: < 0.01; pIC50 [14]: < 4.60; pIC50 [15]: < 4.60; pIC50 [16]: < 4.60
FC(F)(F)c1cc(NCc2ncc(-c3ccc(Oc4ccccc4)cc3)s2)ccn1	7.29	6.29	10	26 (≈ 11.1 µg/mL)	5.54	–
COc1c(C)cc(-c2ncc(CNc3ccnc(C(F)(F)F)c3)s2)cc1C	< 8.30	< 8.30	–	–	–	–
N#Cc1ccc(NCc2cnc(-c3ccc(Oc4ccccc4)cc3)s2)cn1	8.30	6.12	38	6 (≈ 2.31 µg/mL)	3.52	–
N#Cc1ccc(NCc2cnc(-c3ccc(Oc4ccccc4)cc3)s2)nc1	6.10	< 5.30	20	5 (≈ 1.92 µg/mL)	–	–
FC(F)(F)c1cc(NCc2cnc(-c3ccc(Cl)s3)s2)ccn1	7.07	< 5.30	2	43 (≈ 16.2 µg/mL)	–	–
CC(C)Nc1ccc(-c2ncc(CNc3ccnc(C(F)(F)F)c3)s2)cc1	6.37	6.30	7	39 (≈ 15.3 µg/mL)	–	–
FC(F)(F)c1cc(NCc2cnc(-c3ccc(Cl)cc3)s2)ccn1	7.17	6.23	122	36 (≈ 13.3 µg/mL)	4.28	–
CC(C)Oc1ccc(-c2ncc(CNc3cc(C#N)nc(C(F)(F)F)c3)s2)cc1Cl	7.72	6.94	58	25 (≈ 11.3 µg/mL)	5.01	–
CC(C)Oc1ccc(-c2ncc(CNc3cc(Cl)nc(Cl)c3)s2)cc1	7.54	7.06	37	8 (≈ 3.15 µg/mL)	5.62	–
FC(F)(F)c1cc(NCc2nnc(-c3ccc(Oc4ccccc4)cc3)o2)ccn1	7.64	6.39	23	46 (≈ 19 µg/mL)	4.12	–
FC(F)(F)c1cc(NCc2cnc(-c3ccc(C4CC4)cc3)s2)ccn1	7.55	6.75	14	7 (≈ 2.63 µg/mL)	4.19	–
FC(F)(F)c1ccc(NCc2cnc(-c3ccc(Oc4ccccc4)cc3)s2)cn1	7.42	6.37	10	8 (≈ 3.42 µg/mL)	3.42	–
